From BindingDB's records for doi:10.1021/acsmedchemlett.0c00340 (California Institute of Technology, 2020)

Test: Positive allosteric modulator activity at human alpha1beta2S GABA-A receptor expressed in Xenopus laevis oocytes assessed as change in GABA EC50 at 40 uM by two electrode voltage-clamp assay

Row | SMILES | EC50 [µM]
1 | CN1CC[C@]2(O)c3ccccc3N(C)[C@]12c1ccccc1 | 13
2 | CN1CC[C@]2(O)c3cc(I)ccc3N(C)[C@]12c1ccccc1 | 9
3 | CN1CC[C@]2(O)c3cc(Br)ccc3N(C)[C@]12c1ccccc1 | 16
